Calls of active or inactive are those of the source. For most assays here, no stated cut-off is given here; in the data, actives have a measured EC50 and inactives only a lower limit.
How the values were obtained:
[1] = target: T1, Heat shock factor protein 1 (Mus musculus, UniProt P38532); assay: inhibition of MG132-induced HSE-luciferase signal, confirmation, cell-based, NIH3T3, luminescence, dose retest (AID 2382); type: functional;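 further: NIH3T3 fibroblasts with HSF1-driven luciferase reporter stressed by proteasome inhibitor MG132; luminescence from HSF1-driven luciferase expression after 8 hours of MG132 stress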
T1 sequence (P38532 whole entry): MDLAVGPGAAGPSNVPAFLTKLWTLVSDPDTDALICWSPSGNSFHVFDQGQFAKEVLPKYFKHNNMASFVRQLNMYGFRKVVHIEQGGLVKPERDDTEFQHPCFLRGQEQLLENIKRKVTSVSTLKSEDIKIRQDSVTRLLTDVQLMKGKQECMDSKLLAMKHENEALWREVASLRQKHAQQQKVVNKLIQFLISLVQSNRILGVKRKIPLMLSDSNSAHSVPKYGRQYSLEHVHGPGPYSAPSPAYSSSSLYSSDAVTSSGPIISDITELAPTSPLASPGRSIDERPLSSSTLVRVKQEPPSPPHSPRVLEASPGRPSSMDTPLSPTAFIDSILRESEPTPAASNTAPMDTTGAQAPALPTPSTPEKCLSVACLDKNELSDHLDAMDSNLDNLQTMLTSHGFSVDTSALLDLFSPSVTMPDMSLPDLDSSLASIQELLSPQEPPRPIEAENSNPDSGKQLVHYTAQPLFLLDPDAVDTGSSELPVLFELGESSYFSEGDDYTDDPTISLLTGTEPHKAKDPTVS

BJ [2] = assay: cells; type: functional, cell-based; details: Homo sapiens
[3] = target: T2, Replicative DNA helicase DnaB (Mycobacterium tuberculosis, UniProt P9WMR3); assay: DnaB intein splicing inhibitors, dose response, biochemical, cell-free fluorescence (AID 449749); type: functional
T2 sequence (P9WMR3 whole entry): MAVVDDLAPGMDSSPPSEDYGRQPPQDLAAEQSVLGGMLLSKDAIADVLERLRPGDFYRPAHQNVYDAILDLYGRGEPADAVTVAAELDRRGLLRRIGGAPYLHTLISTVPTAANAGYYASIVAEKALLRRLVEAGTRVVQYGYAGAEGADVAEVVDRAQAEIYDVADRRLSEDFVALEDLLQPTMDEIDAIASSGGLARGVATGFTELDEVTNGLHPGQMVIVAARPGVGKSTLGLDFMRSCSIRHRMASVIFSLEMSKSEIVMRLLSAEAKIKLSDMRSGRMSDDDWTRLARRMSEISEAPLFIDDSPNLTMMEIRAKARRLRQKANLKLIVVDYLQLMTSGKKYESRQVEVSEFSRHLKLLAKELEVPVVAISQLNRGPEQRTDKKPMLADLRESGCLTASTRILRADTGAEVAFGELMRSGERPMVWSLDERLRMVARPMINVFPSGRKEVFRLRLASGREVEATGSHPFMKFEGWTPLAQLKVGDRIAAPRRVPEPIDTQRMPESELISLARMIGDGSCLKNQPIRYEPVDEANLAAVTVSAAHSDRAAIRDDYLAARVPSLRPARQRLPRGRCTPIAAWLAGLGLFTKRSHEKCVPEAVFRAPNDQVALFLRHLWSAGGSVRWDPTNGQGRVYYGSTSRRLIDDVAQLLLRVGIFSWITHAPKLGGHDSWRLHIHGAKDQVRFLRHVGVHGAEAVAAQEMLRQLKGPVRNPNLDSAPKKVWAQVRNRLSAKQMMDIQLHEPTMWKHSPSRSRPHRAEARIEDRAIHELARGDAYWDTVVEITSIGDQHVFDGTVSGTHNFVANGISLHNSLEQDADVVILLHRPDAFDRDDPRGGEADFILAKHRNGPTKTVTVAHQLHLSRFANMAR

BJ [4] = assay: cytotoxicity toward BJ-TERT fibroblasts, dose response, cell-based, RAS-independent, luminescence (AID 1933); type: functional; details: Homo sapiens
[5] = cytotoxicity toward DRD oncogenic fibroblasts, dose response, cell-based, non-viral oncogenic, luminescence (AID 1934); type: functional; details: Homo sapiens
Protein RecA = target: T3, Protein RecA (Mycobacterium tuberculosis, UniProt P9WHJ3); assay: Fluorescence Cell-Free Homogeneous Dose Retest to Identify Inhibitors of RecA-Intein Splicing Activity. [Related pubchem assays (depositor defined):AID2097, AID2223, AID489010, AID492950]; type: functional
T3 sequence (P9WHJ3 whole entry): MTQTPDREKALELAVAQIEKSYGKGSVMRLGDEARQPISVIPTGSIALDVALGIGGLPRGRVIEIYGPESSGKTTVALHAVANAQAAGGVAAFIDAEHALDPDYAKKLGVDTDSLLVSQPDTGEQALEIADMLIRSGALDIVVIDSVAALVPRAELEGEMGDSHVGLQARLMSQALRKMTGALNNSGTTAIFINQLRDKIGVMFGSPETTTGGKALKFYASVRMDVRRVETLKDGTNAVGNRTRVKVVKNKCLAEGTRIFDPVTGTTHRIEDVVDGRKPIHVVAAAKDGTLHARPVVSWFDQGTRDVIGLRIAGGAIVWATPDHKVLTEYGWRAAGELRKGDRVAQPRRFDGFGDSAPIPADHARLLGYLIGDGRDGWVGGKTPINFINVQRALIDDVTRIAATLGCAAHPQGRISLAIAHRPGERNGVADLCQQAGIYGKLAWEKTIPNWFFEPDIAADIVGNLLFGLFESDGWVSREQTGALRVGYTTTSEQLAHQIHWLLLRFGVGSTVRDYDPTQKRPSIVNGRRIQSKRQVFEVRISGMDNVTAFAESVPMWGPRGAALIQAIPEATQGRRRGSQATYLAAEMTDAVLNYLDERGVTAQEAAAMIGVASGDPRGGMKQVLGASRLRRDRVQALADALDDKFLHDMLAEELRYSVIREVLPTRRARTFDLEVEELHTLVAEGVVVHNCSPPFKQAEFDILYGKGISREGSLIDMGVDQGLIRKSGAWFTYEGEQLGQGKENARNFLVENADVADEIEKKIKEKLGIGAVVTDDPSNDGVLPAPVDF

BJ [6] = assay: cytotoxicity toward Ras-transformed BJeLR fibroblasts, dose response, cell-based, alamar blue fluorescence, cherrypicked samples (AID 2631); type: functional; details: Homo sapiens;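 further: confirmatory dose-response assay in RAS-dependent BJ fibroblasts engineered with TERT, LT and ST, with cytotoxicity read by fluorescence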
[7] = inhibitors of SNCA 5'UTR-driven reporter translation, confirmation, H4 neuroglioma cells, luminescence (AID 1988); type: functional, cell-based
BJ [8] = assay: cytotoxicity toward BJ-TERT-LT-ST fibroblasts, dose response, cell-based, RAS-independent, luminescence (AID 1935); type: functional; details: Homo sapiens;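 further: BJ fibroblasts immortalized with TERT plus LT and ST oncogenes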
[9] = inhibitors of firefly luciferase expression or activity, dose response, H4 neuroglioma cells, luminescence (AID 1990); type: functional, cell-based
[10] = Luminescence Cell-Based Dose Response HTS to Identify Inhibitors of 5'UTR Stem-Loop Driven Prion Protein mRNA Translation in H4 Neuroglioblastoma Cells. [Related pubchem assays: 1827 (Project Summary), 1813 (Primary HTS)]; type: functional
MDCK [11] = assay: antiviral activity against H1N1 influenza, dose response, cell-based, strain KY136 (AID 540257); type: functional; details: Canis lupus familiaris
Vero = assay: Vero E6 cell cytotoxicity, dose response, cytotoxicity control (AID 540298); type: functional; details: Chlorocebus sabaeus
MDCK [12] = assay: MDCK cell cytotoxicity, dose response, cytotoxicity control (AID 540296); type: functional; details: Canis lupus familiaris
Nonstructural protein 1 = Nonstructural protein 1 (Influenza A virus, UniProt Q194T2); type: functional, Influenza A virus (A/California/07/2009(H1N1))
[13] = target: T4, Beta-adrenergic receptor kinase 1 (Homo sapiens, UniProt P25098); assay: GRK2 inhibitors displacing RNA aptamer, dose response, biochemical, flow cytometry beads, FAM-aptamer, powder set 1 (AID 588720)
[14] = target: T4, Beta-adrenergic receptor kinase 1; assay: aptamer displacement from bead-bound GRK2 – biochemical, cherry pick 1, bead flow cytometry, dose response (AID 504500)
[15] = target: T5, Small ubiquitin-related modifier 1 (Homo sapiens, UniProt P63165); assay: inhibitors of SUMO1 peptide binding, dose response, biochemical, fluorescence polarization, uHTS hits (AID 624382); type: functional; details: read-out: IC50_Mean
[16] = target: T5, Small ubiquitin-related modifier 1; assay: inhibitors of SUMO1 partner interactions, dose response, biochemical, FRET (AID 624383); type: functional; details: read-out: IC50_Mean

T5 sequence (P63165 whole entry): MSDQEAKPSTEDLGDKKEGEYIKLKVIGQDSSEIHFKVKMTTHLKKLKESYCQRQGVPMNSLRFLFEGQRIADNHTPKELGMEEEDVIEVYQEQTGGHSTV
T4 sequence (P25098 whole entry): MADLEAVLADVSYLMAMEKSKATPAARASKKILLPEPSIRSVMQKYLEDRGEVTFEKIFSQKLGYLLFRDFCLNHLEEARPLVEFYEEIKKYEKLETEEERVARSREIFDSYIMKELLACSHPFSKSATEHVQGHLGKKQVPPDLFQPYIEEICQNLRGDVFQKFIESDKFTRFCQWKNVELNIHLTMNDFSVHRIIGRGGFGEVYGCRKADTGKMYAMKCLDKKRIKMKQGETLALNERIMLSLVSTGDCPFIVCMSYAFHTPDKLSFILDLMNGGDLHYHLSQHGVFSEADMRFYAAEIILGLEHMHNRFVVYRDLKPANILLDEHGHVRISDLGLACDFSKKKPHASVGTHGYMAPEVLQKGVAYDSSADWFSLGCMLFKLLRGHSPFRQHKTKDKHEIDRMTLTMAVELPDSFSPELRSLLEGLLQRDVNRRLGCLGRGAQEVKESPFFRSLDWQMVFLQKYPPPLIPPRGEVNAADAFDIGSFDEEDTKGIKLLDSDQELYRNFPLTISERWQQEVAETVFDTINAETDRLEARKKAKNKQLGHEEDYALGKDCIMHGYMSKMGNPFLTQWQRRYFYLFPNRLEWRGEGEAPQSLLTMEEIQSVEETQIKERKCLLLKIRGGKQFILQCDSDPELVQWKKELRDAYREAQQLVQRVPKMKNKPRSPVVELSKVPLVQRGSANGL
Chain of Nonstructural protein 1 (Q194T2 whole entry): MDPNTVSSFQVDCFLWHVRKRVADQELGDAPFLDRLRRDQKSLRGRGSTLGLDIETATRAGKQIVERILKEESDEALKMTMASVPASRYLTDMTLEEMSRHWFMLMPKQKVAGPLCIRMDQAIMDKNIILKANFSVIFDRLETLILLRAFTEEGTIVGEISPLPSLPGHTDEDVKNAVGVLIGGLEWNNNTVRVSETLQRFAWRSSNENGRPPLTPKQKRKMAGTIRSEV

Structure (SMILES)	EC50 [1]	EC50 (BJ [2])	AC50 [3]	EC50 (BJ [4])	EC50 [5]	EC50 (Protein RecA)	EC50 (BJ [6])	EC50 [7]	EC50 (BJ [8])	EC50 [9]	EC50 [10]	IC50 (MDCK [11])	CC50 (Vero)	CC50 (MDCK [12])	IC50 (Nonstructural protein 1)	EC50 [13]	EC50 [14]	IC50 [15]	IC50 [16]
COc1cc(C2CC(c3cccs3)=NN2C(=O)CCl)ccc1OC(F)F (stereo unspecified)	3.04 µM (active)	2.56 µM (active)	1.51 µM (active)	0.625 µM (active)	1.95 µM (active)	1.13 µM (active)	0.608 µM (active)	8.46 µM (active)	4.47 µM (inconclusive)	> 120 µM (not active)	11 µM (active)	–	–	–	–	–	–	–	–
COc1cccc(/C=C2\SC(=S)N(CCCC(=O)N3CCCC3)C2=O)c1	–	–	71.1 µM (active)	–	–	> 380 µM (inactive)	–	–	–	–	–	32.9 µM (active)	12.8 µM (active)	> 40 µM (active)	66.8 µM (active)	–	–	–	–
CC(CS(=O)(=O)c1ccc2c(c1)NC(=O)CS2)C(=O)NCc1ccccc1Cl (stereo unspecified)	–	–	–	–	–	–	–	–	–	–	–	–	–	–	–	0.638 µM (active)	7.53 µM (active)	> 66.6 µM (inactive)	4.08 µM (active)
